Experimental data published in patent publication US20260000763A1, “Methods of Manufacturing Therapeutic Cells” (The Board of Trustees of the Leland Stanford Junior …, priority 2022, published 2026).

Assays:
[1] = system: HA-CAR T cells and CD19-CAR T cells; test: Seahorse analysis of mitochondrial fitness; cell size; format: cell-based
Method: To measure mitochondrial fitness in CAR T cells cultured in the presence or absence of INO, Seahorse analysis was performed.

HA-CAR T cells [2] = system: HA-CAR T cells
Source text: 9D: Levels of expression of indicated purinergic pathway gene transcripts from bulk RNA samples. Data are mean+/−s.e.m. from n=3 donors. P values determined by paired two-tailed t-tests. *, P<0.05; **, P<0.01; ***, P<0.001; **** P<0.0001. […] Histograms of representative donor (Left) and pooled data from n=8 donors shown (Right). P values determined by paired two-tailed t-tests. *, P<0.05; **, P<0.01; ***, P<0.001; ****, P<0.0001. 9F: UMAP plots of day 14 CD8+ (top) and CD4+ (bottom) HA-or HA-INO-CAR T cells analyzed using CyTOF. 9,000 or maximum of CD4+ CAR T cells from each condition from n=4 donors were organized by their combined expression of 5 exhaustion markers. Graphs represent median expression of indicated markers. P values determined by paired two-tailed t-tests. *, P<0.05; **, P<0.01; ***, P<0.001; ****, P<0.0001. 9G: Histograms showing GD2 antigen expressed by Nalm6-GD2 and 143b tumor lines with corresponding number of molecules per cell. 9H: Co-cultures of HA, HA-ADA-O/E-or HA grown in INO stimulated with Nalm6-GD2 (1:8 E: T) at day 14 post-activation. Tumor GFP fluorescence intensity was normalized to the first time point (duplicate or triplicate wells). Representative donor of n=2 donor shown. P values determined by two-way ANOVA with Dunnett's multiple comparisons test. *, P<0.05; **, P<0.01; ***, P<0.001; ****, P<0.0001. […] Error bars represent mean+SD of triplicate wells from one representative donor of n=1-2 donors. P values determined by unpaired two-tailed t-tests. *, P<0.05; **, P<0.01; ***, P<0.001; ****, P<0.0001. 9J: IL-2 release after 24h of CD19.4-1BBz-CAR T cells stimulated with Nalm6 tumor line alone or in co-culture with HA-or HA-INO-CAR T cells at 1:1:1 ratio. Data are mean+SD from triplicate wells. N=1 donor. *, P<0.05; **, P<0.01; *** P<0.001; ****, P<0.0001. […] Data polled from n=5 donors from independent experiments. P values determined by paired two-tailed t-tests *, P<0.05; **, P<0.01; ***, P<0.001; ****, P<0.0001. […] Tumor GFP fluorescence intensity was normalized to the first time point (duplicate or triplicate wells). Representative donor of n=3 donor shown. P values determined by two-way ANOVA with Dunnett's multiple comparisons test. *, P<0.05; **, P<0.01; ***, P<0.001; ****, P<0.0001. 9N: Co-cultures of CD19, or CD19-CAR T cells grown in INO media starting from indicated days post-activation and Nalm6-GD2 (1:10 E: T) starting at day 15 post-activation. Tumor GFP fluorescence intensity was normalized to the first time point (duplicate or triplicate wells). Representative donor of n=2 donor shown. P values determined by two-way ANOVA with Dunnett's multiple comparisons test. *, P<0.05; **, P<0.01; ***, P<0.001; ****, P<0.0001. […] Data are mean±s.e.m. of n=3-5 donors. P values determined by paired two-tailed t-tests. *, P<0.05; **, P<0.01; ***, P<0.001; ****, P<0.0001.

[3] = system: HA-CAR T cells and CD19.28z-CAR T cells; test: Cell cycle state by BrdU and 7AAD staining; format: cell-based; details: day 10, vs control cells, presence or absence of glucose
Source text: 9A: Schematic of the experimental design. […] Graphs represent median expression of indicated markers. […] Representative donor of n=2 donor shown. […] Data are mean+SD from triplicate wells. […] 9K: Schematic of the experimental design. […] Representative donor of n=3 donor shown. […] Representative donor of n=2 donor shown. […] (Top) Dot plots of representative donor shown. […] Representative donor of n=3 donor shown. […] N=2-4 donors from independent experiments. […] N=2-6 donors from independent experiments. […] N=2-4 donors from independent experiments. […] (Top) representative dot plots shown.
Further tested was whether similar functional enhancement occurred with INO exposure in the presence or absence of glucose by serially challenging HA-INO-CAR cells grown in the presence or absence of glucose with Nalm6-GD2. […] Decreased proliferation can be associated with induction of stemness or cells entering quiescence state.

HA-CAR T cells [4] = test: Improvement index overlapped with proliferation to set a therapeutic window for inosine; format: cell-based, human; details: 11 mM glucose plus 0.5-11 mM inosine tested; improvement index vs proliferation
Method: FIG. 7F: Improvement index calculation scheme.
FIG. 7G: Scatter plot showing correlation between improvement index (y-axis-in black) or proliferation (y-axis-in red) and inosine concentration (x-axis). […] N=2-6 donors from independent experiments.
To establish a therapeutic window for inosine addition, an improvement index was calculated. The index represents a sum of fold change in frequency of CCR7+CD8+ and CD62L+CD8+ at the base line and fold change in IL-2 and IFNγ secretion after 24 hours stimulation with Nalm6-GD2 tumor line by HA-CAR T cells manufactured in 11 mM of glucose and various concentrations of inosine (0.5-11 mM) as compared to control (FIG. 7F).

CAR T cells = test: Seahorse analysis, ATP5 expression and ATP levels of CAR T cells manufactured in inosine; format: cell-based
Method: A and B: Seahorse analysis of CAR T cells at day 11 post-activation. Representative graphs of n=1-2 donors are shown. P values were determined by unpaired two-tailed t-tests. C: Flow analysis of ATP5 expression by CD8+ CAR T cells at day 17 post-activation. Representative histograms of two donors are shown. D: ATP levels in CAR T cells at day 14 post activation. Results from two independent experiments are shown (n=2).
Studied next was the effect of inosine on CAR T cell metabolism. […] Furthermore, the total amount of ATP generated by CAR T cells grown in the presence of inosine was increased (FIG. 4D).

GD2-CAR T cells = GD2-CAR T cells manufactured in TexMACS with increasing concentrations of INO; format: cell-based
Method: FIG. 13A-13H: Clinical scale manufacturing of clinical grade GD2-CAR T cells using media containing inosine, improves CAR product quality. A: Schematic of large-scale manufacturing of GD2.bbz-CAR+ T cells in a semi-closed G-Rex system in glucose-or inosine-containing media. 7 days post-activation, transduction efficiency, percentage of viable cells, and CD4/CD8 ratio of GD2+ cells were assessed by flow cytometry. […] B: Expansion of total viable T cells manufactured in control (black) vs. inosine (green)-containing media and (Right) corresponding number of CAR+ cells at day 7. […] C: IL-2 and IFNg secretion by CAR T cells stimulated for 24 hrs with 143b, mg63.3 or Nalm6-GD2 tumor lines. […] D: NSG mice were injected with 1×10^6 Nalm6 leukemia cells. On day 3 post-tumor injection, 2×10^6 of mock or GD2.bbz-CAR T cells manufactured in the presence of inosine or in regular media were transferred intravenously. Tumor growth was monitored by bioluminescent imaging. […] P values determined at day 43 by using Mann-Whitney test. […] E: Concentration of CD45+ T cells detected in blood of mice at D33 post-CAR T cell injection. […] F: Schematic of the experimental design. G: GD2.bbz-CAR T cells grown in media containing indicated inosine concentration between day 3 and day 10 post-activation and stimulated with 143b tumor. IL-2 and IFNg secretion after 24 hrs of co-culture was measured. Data are mean±s.d. of duplicate or triplicate wells. Representative of n=3 donors shown. […] Reprograming is due to an increase in glutaminolysis and polyamine synthesis and downregulation of CD73, FOXP3, A2aR and c-AMP response transcription factors.
Finally, to test compatibility of adding INO to GMP-grade culture media that contains glucose, GD2-CAR T cells were manufactured in TexMACS™ with increasing concentrations of INO (FIG. 13F).

## O=c1[nH]cnc2c1ncn2[C@@H]1O[C@H](CO)[C@@H](O)[C@H]1O [inosine, Inosine]
[1]; Seahorse, day 11
  metabolic profile of non-tonic signaling CD19-CAR T cells: memory-like metabolic profile
[1]; day 11, control vs INO cultured cells
  basal oxygen consumption rate (Basal OCR): did not differ
[1]; day 13 post-activation
  size of the cells: increased size
HA-CAR T cells [2]; HA vs HA-INO
  expression of ornithine decarboxylase (ODC), spermidine synthase and elF5A: increased expression
  genes associated with TCR signaling: diminished expression
HA-CAR T cells [2]; HA vs HA-INO, day 14
  genes associated with glutaminolysis and polyamine synthesis: increased expression
  genes associated with glycolysis and glucose driven metabolism (PFKP, ALDOA, GAPDH, PGK, ENO1): downregulation
HA-CAR T cells [2]; bulk RNA-seq PCA
  variance in principal component analysis attributed to INO exposure: 41.3%
[3]
  cell cycle distribution: higher proportion of cells in S/G2+M phase
HA-CAR T cells [4]
  inosine concentration range improving phenotype and function without complete inhibition of expansion (therapeutic window): 2.75 to 11 mM
CAR T cells; CD8+ CAR T cells, day 17, flow
  ATP5 (Complex V) protein expression: increased level
CAR T cells; Seahorse, day 11
  bioenergetic profile: shifting it towards oxidative phosphorylation
CAR T cells; Seahorse, day 11 post-activation
  extracellular acidification rate (ECAR): significantly decreased
CAR T cells; day 14
  total amount of ATP generated: increased
GD2-CAR T cells; INO 11 mM vs lower concentrations
  antigen induced cytokine production: trend toward greater antigen induced cytokine production
GD2-CAR T cells; TexMACS (contains glucose) with increasing INO
  cell proliferation: significantly decreased cell proliferation
GD2-CAR T cells; TexMACS with increasing INO
  CAR T cell viability: no changes
GD2-CAR T cells; challenged with 143b cells, 24 hrs, INO day 3 to day 10
  secretion of IL-2 and IFNg: dose-dependent increase
GD2-CAR T cells; vs control cells
  CD62L expression: increased CD62L expression
